Assay results published in patent US20230338454A1, “FORSYTHIA SUSPENSA COMPONENT AND OPTIONAL PANAX GINSENG COMPONENT AND THE APPLICATION” (priority 2020, published 2023).
Read-outs that look alike come from different tables or passages of the source.

Key:
[1] = system: influenza virus; type: in vivo, Kunming mice; settings: for Lung index (x̅ ±S) / Lung index Inhibitory rate (%): 13.0 mg/kg/day by gavage, 5 days
[2] = system: Vero cells; test: Cytotoxicity test of drugs on Vero cells (MTT); settings: 72 h
[3] = system: parainfluenza virus; type: in vivo, Kunming mice
[4] = system: epithelial cells of plantar sweat glands of rats; test: Sweat secretion of rat paw (histomorphology observation method); type: in vivo, Wistar rats; settings: 1 h after gavage, dose not given
Excerpt: After sweat glands activation in rats, besides the increase of sweat secretion, the morphology of the epithelial cells of the sweat glands changes accordingly. Under the optical microscope, the increase and enlargement of vacuoles in the epithelial cells of the sweat glands are observed. Under an electron microscope, the enlarged vacuoles appear to be due to swelling and rupture of mitochondria, enlargement of fusion and secretory vesicles in the epithelial cells of sweat glands. The secretory activity of sweat glands could be understood by observing the histomorphology of the epithelial cells of plantar sweat glands of rats. Three hundred Wistar rats, half male and half female, weighing 120-160 g. were taken in the study. […] Except for the pilocarpine solution given by subcutaneous injection, other groups were administered by gavage. One hour after the control group was given 0.5% carboxymethyl cellulose, 30 min after the positive drug group was given pilocarpine, and 1 h after the administration of forsythin, ginsenoside Rg3 and the panax ginseng-forsythia suspensa composition, the right hind limb was immediately cut off at the level of the ankle joint. […] Observations were made under an optical microscope for changes in the epithelial cells of the plantar sweat glands of rats in each group, mainly the incidence of vacuoles. The statistical processing was performed by X^2 test, and differences among the groups were compared. The above study was repeated for 3 times.

[5] = system: Influenza virus; test: Effect of drugs on viral cytopathic effect, effective antiviral rate (ER%); type: cell-based
[6] = system: Herpes simplex virus type 1 (HSV-1); test: as above; type: cell-based; settings: Vero cells, 100TCID50, drug at maximum non-toxic concentration, 72 h, MTT
[7] = system: fever induced by beer yeast; test: Fever induced by beer yeast in rats; type: in vivo, Wistar rats; settings: 10 mg/kg; for Body temperature change (%) (antipyretic percentage), time post-dose 1 h / Body temperature, time post-dose 1 h: 1 h post-dose; for Body temperature change (%) (antipyretic percentage), time post-dose 2 h / Body temperature, time post-dose 2 h: 2 h post-dose; for Body temperature change (%) (antipyretic percentage), time post-dose 3 h / Body temperature, time post-dose 3 h: 3 h post-dose; for Body temperature change (%) (antipyretic percentage), time post-dose 4 h / Body temperature, time post-dose 4 h: 4 h post-dose
[8] = system: mouse splenic lymphocytes; test: ConA-induced mouse splenic lymphocyte transformation test; type: in vivo, Kunming mice; settings: 144 mg/kg; gavage once daily for 30 days; mice; ABSa-ABSb at 570 nm
Experimental: One hundred and fifty-two healthy male mice were subjected to acclimation for 4 days before they were randomly divided into 19 groups: the negative control group, positive control group, forsythin group, 20(R)-ginsenoside Rg3 group, high, middle and low dose groups of panax ginseng-forsythia suspensa composition. […] The drugs were given by gavage, once daily for 30 days, and the negative control group was given the same volume of water. At 1 h after the last dose, the spleens of animals of each group were aseptically excised to prepare splenocyte suspension. After diluting the splenocyte suspension to a concentration of 3×10^6 cells/mL, the splenocyte suspension was divided into 2 aliquots.Each of the aliquot was transferred into two 24-well culture plates at a volume of 1 mL/well followed by addition of 75 µL of ConA solution (a) was added to one well, and the other well was used as control (b). The wells were cultured at 37° C. for 72 h. Then, thiazolyl blue (MTT) was added 4 h before the end of the culture. After incubation, acidic isopropanol was added, and the absorbance (ABS) of each solution was measured at 570 nm after it was mixed well. The proliferativity was calculated using the formula: proliferativity = ABSa-ABSb. Each dose group of the test sample was compared with the negative control group.

[9] = system: Adenovirus (AdV); test: Effect of drugs on viral cytopathic effect, effective antiviral rate (ER%); type: cell-based; settings: Vero cells, 100TCID50, drug at maximum non-toxic concentration, 72 h, MTT
[10] = system: influenza virus; type: in vivo, Kunming mice; settings: 13.0 mg/kg/day by gavage, 5 days
[11] = system: parainfluenza virus; type: in vivo, Kunming mice; remark: listed apart in the source
[12] = system: Parainfluenza virus; test: Effect of drugs on viral cytopathic effect, effective antiviral rate (ER%); type: cell-based; settings: Vero cells, 100TCID50, drug at maximum non-toxic concentration, 72 h, MTT
[13] = system: sweat secretion of rat paw; test: Sweat secretion of rat paw (staining method); type: in vivo, Wistar rats; settings: of 10 rats; dose not printed, gavage
Excerpt: There are sweat glands on the plantar skin of rats, so the changes in sweat secretion can be observed by the purple reaction between the iodine-starch mixture and the sweat. Five hundred Wistar rats, half male and half female, weighing 120-150 g, were taken in the study. […] The rats were placed in a homemade rat-fixing bag to expose both hind limbs. The dirt on the right paw was gently scrubbed with a cotton swab dipped in absolute ethanol. Except for the pilocarpine solution, which was given by subcutaneous injection, other groups were administered by gavage. One hour after administration (30 min after administration in the pilocarpine group), the sweat secreted from the right paw of rats in each group was gently cleaned with a dry cotton swab before the study and during struggling. The right paw was coated with Wotan-[…] reagent A solution (dissolve 2 g of iodine in 100 mL of absolute ethanol) and then coated with Wotan-[…] reagent B solution (mix 50 g of soluble starch and 100 mL of Ricinus conununis oil well) after reagent A was fully absorbed. […] At the end of the test, a rank-sum test was used to analyze the differences among the groups.

[14] = system: Coxsackievirus A16 (CoxA16); test: Effect of drugs on viral cytopathic effect, effective antiviral rate (ER%); type: cell-based; settings: Vero cells, 100TCID50, drug at maximum non-toxic concentration, 72 h, MTT
[15] = system: respiratory syncytial virus (RSV); test: as above; type: cell-based; settings: Vero cells, 100TCID50, drug at maximum non-toxic concentration, 72 h, MTT
[16] = system: Coxsackievirus B3 (CVB3); test: as above; type: cell-based; settings: Vero cells, 100TCID50, drug at maximum non-toxic concentration, 72 h, MTT
[17] = […], 13.0 mg/kg/day by gavage, 5 days
[18] = mice infected with parainfluenza virus, 13.0 mg/kg/day by gavage, 5 days
[19] = mice infected with influenza virus
[20] = lung suspension, mice infected with influenza virus

| SMILES | Half toxic concentration (TC50) [2] | Maximum non-toxic concentration (TC0) [2] | Number of vacuolar sweat glands (number) [4] | Vacuolation rate (%) [4] | Effective Antiviral Rates (ER%) HSV-I [6] | Body temperature change (%) (antipyretic percentage), time post-dose 1 h [7] | Body temperature, time post-dose 1 h [7] | Body temperature change (%) (antipyretic percentage), time post-dose 2 h [7] | Body temperature, time post-dose 2 h [7] | Body temperature change (%) (antipyretic percentage), time post-dose 3 h [7] | Body temperature, time post-dose 3 h [7] | Body temperature change (%) (antipyretic percentage), time post-dose 4 h [7] | Body temperature, time post-dose 4 h [7] | Proliferation ability (×10^-2) [8] | Effective Antiviral Rates (ER%) ADV [9] | Effective Antiviral Rates (ER%) Parainfluenza virus [12] | Number of animals with sweat spots of each grade at 1 min after application of solution B: grade + [13] | Number of animals with sweat spots of each grade at 1 min after application of solution B: grade ++ [13] | Number of animals with sweat spots of each grade at 1 min after application of solution B: grade +++ [13] | Number of animals with sweat spots of each grade at 1 min after application of solution B: grade +++ (fifth grade column) [13] | further results |
| --- | --- | --- | --- | --- | --- | --- | --- | --- | --- | --- | --- | --- | --- | --- | --- | --- | --- | --- | --- | --- | --- |
| CC(C)=CCC[C@](C)(O)[C@H]1CC[C@]2(C)[C@@H]1[C@H](O)C[C@@H]1[C@@]3(C)CC[C@H](O[C@@H]4O[C@H](CO)[C@@H](O)[C@H](O)[C@H]4O[C@@H]4O[C@H](CO)[C@@H](O)[C@H](O)[C@H]4O)C(C)(C)[C@@H]3CC[C@]12C [20(R)-Ginsenoside Rg3, 20(R)-ginsenoside Rg3] | 310 µg/mL | 0.0048 g/L | 79 number | 20.26^∗∗ % | 83.61^∗∗ % | -0.3±0.41% | 39.31±0.48 °C | -0.69±0.93^∗ % | 39.04±0.45 °C | -1.03±1.18^∗ % | 38.91±0.40 °C | -1.55±1.23^∗ % | 38.70±0.31 °C | 23.9±11.70 ×10^-2 | 51.07% | 82.21^∗∗ % | 1 animals | 3 animals | 3 animals | 3 animals | Lung index (x̅ ±S) ([1]; […]): 1.302±0.046; Lung index Inhibitory rate (%) ([1]; […]): 12.51%; Lung index compared with the infection model group, in words ([1]; mouse, in vivo): decreased significantly; Hemagglutinin titer (InX) [3, 17]: 23.79±1.072; Inhibitory rate (%) of hemagglutination titer [3, 17]: 28.15%; Effective Antiviral Rates (ER%) Influenza virus [5]: 74.06^∗∗ %; Hemagglutinin titer (InX) ([10]; […]): 22.61±1.059; Inhibitory rate (%) of hemagglutination titer ([10]; […]): 30.22%; Lung index (x̅ ±S) [11, 18]: 1.357±0.050; Lung index Inhibitory rate (%) [11, 18]: 14.69%; Lung index compared with the infection model group, in words ([11]; mice infected with parainfluenza virus, P < 0.05 or P < 0.01): decreased significantly; Number of animals with sweat spots of each grade at 1 min after application of solution B: grade - [13]: 0 animals; Number of animals with sweat spots of each grade at 5 min after application of solution B: grade + [13]: 1 animals; Number of animals with sweat spots of each grade at 5 min after application of solution B: grade ++ [13]: 3 animals; Number of animals with sweat spots of each grade at 5 min after application of solution B: grade +++ [13]: 2 animals; Number of animals with sweat spots of each grade at 5 min after application of solution B: grade +++ (fifth grade column) [13]: 4 animals; Number of animals with sweat spots of each grade at 5 min after application of solution B: grade - [13]: 0 animals; Effective Antiviral Rates (ER%) CoxA16 [14]: 52.33%; Effective Antiviral Rates (ER%) RSV [15]: 79.42^∗∗ %; Effective Antiviral Rates (ER%) CVB3 [16]: 53.75% |
| COc1ccc([C@H]2OCC3C2CO[C@H]3c2ccc(O[C@@H]3OC(CO)[C@@H](O)[C@H](O)C3O)c(OC)c2)cc1OC (stereo partly drawn) [Forsythin] | 550 µg/mL | 0.0066 g/L | 86 number | 22.15^∗∗ % | 85.00^∗∗ % | -0.60±0.39% | 39.13±0.52 °C | -0.92±0.93^∗∗ % | 38.77±0.42 °C | -1.29±1.18^∗ % | 38.63±0.40 °C | -1.70±1.23^∗ % | 38.46±0.31 °C | 28.66±12.63 ×10^-2 | 75.14^∗∗ % | 84.96^∗∗ % | 2 animals | 2 animals | 2 animals | 4 animals | Lung index (x̅ ±S) [1, 19]: 1.280±0.040; Lung index Inhibitory rate (%) [1, 19]: 14.00%; Hemagglutinin titer (InX) ([3]; mouse, in vivo, 13 mg/kg/day): 23.17±1.059; Inhibitory rate (%) of hemagglutination titer ([3]; mouse, in vivo, 13 mg/kg/day): 30.01%; Effective Antiviral Rates (ER%) Influenza virus ([5]; Vero cells, 100TCID50, drug at maximum non-toxic concentration, 72 h, MTT): 75.38^∗∗ %; Hemagglutinin titer (InX) [10, 20]: 22.06±1.120; Inhibitory rate (%) of hemagglutination titer [10, 20]: 31.90%; Lung index (x̅ ±S) ([11]; mouse, in vivo, 13 mg/kg/day): 1.335±0.062; Lung index Inhibitory rate (%) ([11]; mouse, in vivo, 13 mg/kg/day): 16.10%; Number of animals with sweat spots of each grade at 1 min after application of solution B: grade - [13]: 0 animals; Number of animals with sweat spots of each grade at 5 min after application of solution B: grade + [13]: 1 animals; Number of animals with sweat spots of each grade at 5 min after application of solution B: grade ++ [13]: 2 animals; Number of animals with sweat spots of each grade at 5 min after application of solution B: grade +++ [13]: 2 animals; Number of animals with sweat spots of each grade at 5 min after application of solution B: grade +++ (fifth grade column) [13]: 5 animals; Number of animals with sweat spots of each grade at 5 min after application of solution B: grade - [13]: 0 animals; Effective Antiviral Rates (ER%) CoxA16 [14]: 75.08^∗∗ %; Effective Antiviral Rates (ER%) RSV [15]: 80.40^∗∗ %; Effective Antiviral Rates (ER%) CVB3 [16]: 75.27^∗∗ % |
